Paper PMC7075522 (ACS infectious diseases, 2016)

Key:
[1] = system: DENV in BHK-21 and NIH3T3 cells; conditions: cited from earlier work
[2] = system: sera of 24 SARS-positive patients; type: binding, human

Row | Substance | ADE of DENV [1] | Immunoreactivity with sera [2]
1 | CPFLKQNEPEDIDCW | blocked this ADE in a dose-dependent manner | 
2 | LYQDVN [S597–602] |  | immunoreactive with the tested sera of 24 SARS-positive patients
